From the supplement of paper PMC10307832

compound: Cc1ccc(C(=O)Nc2ccc(CN3CCN(C)CC3)c(C(F)(F)F)c2)cc1C#Cc1cnc2cccnn12 [Ponatinib]; assay: relative viability (nuclei count vs DMSO), 5 days (fraction); higher = more cells survive; settings: 0.002 µM
Procedure, shortened: (§1)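 Lung cancer cell lines in 1536-well plates were kept overnight at 37 °C, then pinned with five library-drug doses (not always all listed) spaced by √10 on vehicle-anchored plates. After 5 days without medium change, cells were fixed, permeabilised and Hoechst-stained in one step, imaged at 4×, and nuclei were counted with MetaXpress. Viability is treated-well nuclei divided by vehicle-well nuclei, taken as the median over plates. Plates passed only with control CV below 25% and at least one doubling.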

Cell Line | relative viability
NCI-H23 | 0.862
NCI-H1299 | 0.997
NCI-H650 | 0.791
CAL-12T | 0.929
NCI-H1651 | 0.982
EPLC-272H | 0.818
NCI-H2228 | 0.828
NCI-H1792 | 0.887
NCI-H1355 | 0.923
NCI-H322M | 0.96
NCI-H1437 | 0.945
NCI-H1755 | 1.02
NCI-H2023 | 0.821
HCC-15 | 0.972
NCI-H1944 | 0.828
PC-3 [JPC-3] | 0.932
EKVX | 0.899
LC-2-ad | 0.85
NCI-H1563 | 0.935
NCI-H2170 | 0.927
NCI-H1975 | 0.831
SK-LU-1 | 0.943
ABC-1 | 0.865
SK-MES-1 | 0.944
NCI-H661 | 0.98
RERF-LC-KJ | 0.926

same assay, conditions: 0.006325 µM

Cell Line | relative viability
NCI-H23 | 1
NCI-H1299 | 1.02
NCI-H650 | 0.848
CAL-12T | 0.951
NCI-H1651 | 1.02
EPLC-272H | 1.01
NCI-H2228 | 0.991
NCI-H1792 | 0.836
NCI-H1355 | 1.02
NCI-H322M | 0.983
NCI-H1437 | 0.983
NCI-H1755 | 0.964
NCI-H2023 | 0.95
HCC-15 | 1.06
NCI-H1944 | 1.01
PC-3 [JPC-3] | 1.05
EKVX | 1.06
LC-2-ad | 0.885
NCI-H1563 | 0.959
NCI-H2170 | 0.969
NCI-H1975 | 0.918
SK-LU-1 | 1
ABC-1 | 0.852
SK-MES-1 | 1.06
NCI-H661 | 0.942
RERF-LC-KJ | 1.01

same assay, conditions: 0.06325 µM

Cell Line | relative viability
NCI-H23 | 1.15
NCI-H1299 | 1.02
NCI-H650 | 0.858
CAL-12T | 1.15
NCI-H1651 | 1.08
EPLC-272H | 1.14
NCI-H2228 | 1.07
NCI-H1792 | 1.12
NCI-H1355 | 1.11
NCI-H322M | 0.953
NCI-H1437 | 1.01
NCI-H1755 | 0.99
NCI-H2023 | 1.1
HCC-15 | 1.1
NCI-H1944 | 0.957
PC-3 [JPC-3] | 1.15
EKVX | 1.24
LC-2-ad | 0.785
NCI-H1563 | 0.99
NCI-H2170 | 1
NCI-H1975 | 0.948
SK-LU-1 | 1.07
ABC-1 | 0.96
SK-MES-1 | 1.15
NCI-H661 | 0.985
RERF-LC-KJ | 1.05

same assay, conditions: 0.2 µM

Cell Line | relative viability
NCI-H23 | 0.833
NCI-H1299 | 0.931
NCI-H650 | 0.896
CAL-12T | 0.97
NCI-H1651 | 0.929
EPLC-272H | 0.801
NCI-H2228 | 0.895
NCI-H1792 | 0.838
NCI-H1355 | 1
NCI-H322M | 0.853
NCI-H1437 | 0.926
NCI-H1755 | 0.892
NCI-H2023 | 0.846
HCC-15 | 1.02
NCI-H1944 | 1
PC-3 [JPC-3] | 1.03
EKVX | 1.06
LC-2-ad | 0.768
NCI-H1563 | 0.815
NCI-H2170 | 0.917
NCI-H1975 | 0.844
SK-LU-1 | 0.928
ABC-1 | 0.751
SK-MES-1 | 1
NCI-H661 | 0.99
RERF-LC-KJ | 0.965

compound: Cc1ccc(Nc2nccc(N(C)c3ccc4c(C)n(C)nc4c3)n2)cc1S(N)(=O)=O [Pazopanib]; assay: as above; settings: 0.01 µM
Procedure, shortened: as §1

Cell Line | relative viability
NCI-H23 | 0.858
NCI-H1299 | 1.02
NCI-H650 | 0.801
CAL-12T | 1.15
NCI-H1651 | 0.917
EPLC-272H | 0.706
NCI-H2228 | 0.964
NCI-H1355 | 0.753
NCI-H322M | 0.906
NCI-H1437 | 1
NCI-H1755 | 0.892
NCI-H2023 | 0.856
HCC-15 | 0.837
NCI-H1944 | 0.739
PC-3 [JPC-3] | 1.13
EKVX | 0.902
LC-2-ad | 1
NCI-H1563 | 0.85
NCI-H2170 | 0.828
NCI-H1975 | 0.889
SK-LU-1 | 0.939
ABC-1 | 0.798
SK-MES-1 | 0.946
NCI-H661 | 0.939
RERF-LC-KJ | 1.11

same assay, conditions: 0.03162 µM

Cell Line | relative viability
NCI-H23 | 1.04
NCI-H1299 | 1.03
NCI-H650 | 0.982
CAL-12T | 0.99
NCI-H1651 | 1
EPLC-272H | 0.919
NCI-H2228 | 1
NCI-H1792 | 0.911
NCI-H1355 | 0.952
NCI-H322M | 0.996
NCI-H1437 | 0.972
NCI-H1755 | 0.967
NCI-H2023 | 1
HCC-15 | 0.987
NCI-H1944 | 0.965
PC-3 [JPC-3] | 1.05
EKVX | 0.989
LC-2-ad | 0.99
NCI-H1563 | 0.997
NCI-H2170 | 1.02
NCI-H1975 | 0.895
SK-LU-1 | 1.09
ABC-1 | 0.89
SK-MES-1 | 0.987
NCI-H661 | 0.958
RERF-LC-KJ | 1.03

same assay, conditions: 0.1 µM

Cell Line | relative viability
NCI-H23 | 1.03
NCI-H1299 | 1.03
NCI-H650 | 0.916
CAL-12T | 0.986
NCI-H1651 | 1.01
EPLC-272H | 0.962
NCI-H2228 | 1.03
NCI-H1792 | 0.832
NCI-H1355 | 0.95
NCI-H322M | 0.92
NCI-H1437 | 0.971
NCI-H1755 | 0.947
NCI-H2023 | 0.989
HCC-15 | 1.02
NCI-H1944 | 1.06
PC-3 [JPC-3] | 1.09
EKVX | 0.964
LC-2-ad | 1.01
NCI-H1563 | 1.02
NCI-H2170 | 0.948
NCI-H1975 | 0.993
SK-LU-1 | 1.08
SK-MES-1 | 1.04
NCI-H661 | 1.03
RERF-LC-KJ | 0.984

same assay, conditions: 0.3162 µM

Cell Line | relative viability
NCI-H23 | 1.02
NCI-H1299 | 0.993
NCI-H650 | 0.948
CAL-12T | 1.02
NCI-H1651 | 0.956
EPLC-272H | 1.07
NCI-H2228 | 0.973
NCI-H1792 | 1.12
NCI-H1355 | 1
NCI-H322M | 0.967
NCI-H1437 | 0.976
NCI-H1755 | 0.978
NCI-H2023 | 0.974
HCC-15 | 1.06
NCI-H1944 | 0.981
PC-3 [JPC-3] | 1.02
EKVX | 1.06
LC-2-ad | 1.07
NCI-H1563 | 0.996
NCI-H2170 | 0.899
NCI-H1975 | 0.944
SK-LU-1 | 1.05
ABC-1 | 1.08
SK-MES-1 | 1.05
NCI-H661 | 1
RERF-LC-KJ | 0.919

same assay, conditions: 1 µM

Cell Line | relative viability
NCI-H23 | 1.29
NCI-H1299 | 0.95
NCI-H650 | 0.946
CAL-12T | 1.13
NCI-H1651 | 1.01
EPLC-272H | 0.92
NCI-H2228 | 1.04
NCI-H1792 | 0.956
NCI-H1355 | 1.06
NCI-H322M | 1.03
NCI-H1437 | 1.06
NCI-H1755 | 1.02
NCI-H2023 | 1.22
HCC-15 | 1.03
NCI-H1944 | 1.01
PC-3 [JPC-3] | 1.01
EKVX | 1.03
LC-2-ad | 1.07
NCI-H1563 | 1.07
NCI-H2170 | 0.995
NCI-H1975 | 1.03
SK-LU-1 | 1.08
ABC-1 | 0.974
SK-MES-1 | 1.05
NCI-H661 | 0.986
